Data on 2 substances can be found in patent US6551774B1, “Diagnostic methods for conditions associated with elevated cellular levels of telomerase activity” (Board of Regents, The University of Texas System, priority 1992, dated 2003).

Series [1] deals with MDA 157 human breast cancer cells. The series can be described thus: Proliferation of MDA 157 cancer cells fed oligonucleotides (Example 2). Format: cell-based. Particulars: 1.0 μM CTO-12. As to the method: Specifically, MDA 157 human breast cancer cells with an immortal phenotype were seeded at 10,000 cells per well in 12 well tissue culture dishes and fed medium only or medium supplemented with GTO-12 (at 1.0 μM, 0.1 μM, and 0.01 μM). […] Cells fed the GTO-12 oligonucleotide, at 1.0 μM, however, ceased to proliferate after less than 10 doubling. […] The lack of effect of the G+C mixture may reflect the CTO-12 oligonucleotide, competing with or base pairing with the GTO-12 oligonucleotide, this preventing its inhibitory effect on the cancer cell telomerase.

Series [2] deals with IMR-90 human lung fibroblasts. As to the kind of experiment: Proliferative lifespan of IMR-90 fibroblasts fed oligonucleotides (Example 1). The format is cell-based. An excerpt:
The efficacy of the CTO-12 oligonucleotide (5′-[…]-3′ Seq. ID No. 2) to reduce telomere shortening associated with cellular senescence (FIG. 1) was studied using target cells cultured under standard cell culture conditions in minimal essential medium supplemented with 10% fetal calf serum. The cells were subcultivated every four days by trypsinization upon reaching confluency and were fed new medium at subcultivation or every two days, whichever came first. Cells at various population doubling levels were seeded at 10,000 cells per well and fed medium containing oligonucleotides at various concentrations. oligonucleotides studied were the cytidine-rich terminal oligonucleotide (CTO-12), guanidine-rich terminal oligonucleotide-12 bp (GTO-12, having the sequence 5′-[…]-3′ (SEQ ID NO:19), and a 12 base pair randomer with a random nucleotide in every position. As an additional control, cells were fed identical medium without oligonucleotide. Cells were fed oligonucleotide every 48 hours from 10×stocks. (Such oligonucleotides may be modified to enhance stability, e.g., with phosphorothioates, dithioate and 2-O-methyl RNA.) In the case of phosphorothioates it would be desirable to use longer CTO primers such as 5′-[…]-3′(SEQ ID NO:20), 5′-[…]-3′(SEQ ID NO:21), or 5′-[…]-3′(SEQ ID NO:22). […]

The test system of the next series is IMR-90 lung fibroblasts. The series can be described thus: Life span of IMR-90 lung fibroblasts treated with phosphodiester CTO (Example 11). Format: cell-based, human. Here is the method: Referring to FIG. 14, IMR-90 lung fibroblasts TRFat PDL 30 were treated with 10 μM, 30 μM or 100 μM phosphodiester CTO or with only media addition (control). The cells were cultured in medium containing regular defined supplemented calf serum. The cells were passaged in 24 well dishes and subcultivated by trypsinization upon reaching confluency at 25,000 cells per well. The cells were fed medium containing oligonucleotides at various concentrations daily. As a control, cells were fed identical medium without oligonucleotides. As is illustrated in FIG. 14, there was approximately a 12-15% extension of total life span with CTO. In these experiments the control cells divided approximately 15-18 times during the experiment, whereas the treated cells divided 23-26 times. IMR-90 telomeres shorten approximately 50 b.p. per division and the TRF length of the control IMR-90 fibroblasts at senescence was approximately 9 kb. Since the 100 μM CTO-treated IMR-90 cells senesced at PDL 55, the predicted difference in the rate of TRF loss between the control and the 100 μM CTO (9 kb vs 9.4 kb) is too small to be resolved using current techniques.

The test system of series [3] is HME31E6 cells. The series can be described thus: Replicative lifespan of HME31E6 cells cultured with CTR (Example 10). Conditions: 30 μM and 100 μM. The format is cell-based, human. As to the method: Human mammary epithelial cells expressing HPV16 E6 bypass M1 and have extended replicative lifespan. HME31 Cells normally senesce at PDL 42-45. When expressing […] they will bypass M1 and divide until they reach crisis (M2) at PDL 53-62. The TRFs in HME31 (E6) cells at PDL 40 are approximately 5-6 Kb while at PDL 62 they are 3-4 Kb (see FIG. 12). […] As controls, the cells were cultured without oligonucleotide (control), or with a 30 μM random oligonucleotide with the base content matched to the CTR oligonucleotide. […] The control cells divided approximately 20 times during the experiment, whereas the CTR-treated cells divided at least 40-50 times.

Series [4] relates to HME31E6 cells. The series can be described thus: TRF shortening in HME31E6 cells cultured with CTO (Example 10). The format is cell-based, human. Conditions: 3, 10, 30 and 100 μM, between PDL 36 and 50. The text has this: As in Example 1, the change in proliferative lifespan and rate of telomere shortening in cultured mammary epithelial cells treated with the indicated amounts of CTO (occasionally referred to as C-Rich Terminal Repeat (CTR)) versus control random oligonucleotides. Normal human mammary epithelial cells from a donor (31) were infected with the E6 gene of human papilloma virus 16. This gene product binds p53 protein and permits HME31 cells to have extended life span by proliferating from PDL 42 to PDL 62 when crisis occurs. During this extended lifespan period the TRFs shorten from an average of approximately 5 kb to 2.5 kb (compare in FIG. 12 HME31 PD 40 to HME31E6 PD 68).
As controls the cells were cultured without oligonucleotides (nil) or with 30 μM random oligonucleotide. […] This is most easily seen by examining the subpopulation of telomere TRFs that migrate more slowly than the rest, giving a discrete trailing band. Cells were maintained in logarithmic growth with medium changed and fresh oligonucleotide added three times per week.

Another series concerns SW26 cells. As to the kind of experiment: Frequency of escape from crisis (immortalization) of SW26 cells, fluctuation analysis. Particulars: bleomycin sulfate 25 μg/ml for two hours; LNL6 infection with 2 μg/ml polybrene. The format is cell-based, human. The text has this:
The frequency of escape from crisis (e.g., the immortalization frequency of T-antigen expressing cells) was estimated using an approach based on what is essentially a fluctuation analysis as previously described (Shay, J. W., and Wright, W. E. (1989) Exp. Cell Res. 184, 109-118). SW26 cells (a clone isolated from IMR 90 normal human lung fibroblasts transfected with a vector expressing SV40 large T antigen) were expanded approximately 15 PDL's before crisis into multiple series at a constant cell density of 6667 cells/cm^2. Each series was subsequently maintained as a separate culture, so that at the end of the experiment the fraction of each series that gave rise to immortal cell lines could be determined. Cultures were split at or just prior to confluence at 6667 cells/cm^2. […]
The remainder of the dishes were used as controls (70 dishes) or infected with LNL6 defective retrovirus (100 dishes). […] Within a few days after infection, all control and experimental dishes were counted and each dish contained 1-2×10^6 cells. The PDL of each dish was calculated and cells were then replated at 0.33×10^6 in 50 cm^2 dishes and maintained separately to conduct the fluctuation analysis.
Immortalization is expressed as the number of immortal lines per number of culture series, each series being derived from a single dish at the initiation of the experiment. […]

In the next series the test system is IMR-90 SW26 cells. As to the kind of experiment: Cell death of IMR-90 SW26 cells on bleomycin sulfate treatment. Particulars: 25 μg/ml for two hours in serum free medium. Format: cell-based, human. As to the method:
SW 26 cells enter crisis at approximately PDL 82-85. Numerous vials of SW26 cells (8×10^6 cells/vial) were frozen at PDL 71, and testing verified that spontaneous immortalization events had not yet occurred. Five vials were thawed, scaled up for 4 days to approximately 10^8 cells (thus to approximately PDL 74), then trypsinized and combined into a single pool of cells in 40 ml of medium and distributed into 200 10 cm^2 dishes. Thirty dishes were treated with 25 μg/ml bleomycin sulfate (a chemical mutagen) for two hours in serum free medium one day later.

For 5′-CCCTAACCCTAA-3′ [CTO-12], the proliferation phenotype entry in series [1] was “continued to express the immortal phenotype”. The “doublings of continued proliferation more than control cells” value in series [2] (1.0 μM oligonucleotide, cells seeded at PD45) is given as “approximately 10 doubling”. Moreover, in series [2] (CTO-12 at less than 1.0 μM (0.1 μM), seeded at PD45), the “population doubling at which replicative senescence was reached” value is “about 52 population doubling”. In addition, the “number of cell divisions during the experiment” value with IMR-90 lung fibroblasts (10 μM, 30 μM or 100 μM, from PDL 30) was 23-26 times; in the series with HME31E6 cells [3] (started at PDL 36, defined medium without serum), 40-50 times. Besides, the “extension of total life span” value with IMR-90 lung fibroblasts (10 μM, 30 μM or 100 μM, from PDL 30, fed daily) was 12-15%. The substance also had a PDL at senescence in the series on IMR-90 lung fibroblasts (100 μM) of 55 PDL. In addition, the “replicative lifespan compared to control and 30 μM random oligonucleotide” value in the series with HME31E6 cells [3] (started at PDL 36) is listed as “dose-related extension of the replicative lifespan”. The “TRF shortening compared to nil control and 30 μM random oligonucleotide” value in the series with HME31E6 cells [4] is given as “dose related retardation of TRF shortening”.

Consider bleomycin sulfate, for which, in the series with SW26 cells, the “Frequency (probability of obtaining an immortal cell line based on the number of cells plated at each passage)” value is on record as 7.7 × 10^−7 and the “Immortalization (number of immortal lines per number of culture series)” value was 7/27. In addition, the cells dying result with IMR-90 SW26 cells is “approximately 50%”.
